Data as given in patent US11787839B2, “Targeting α2δ-1-bound glutamate receptors for treating diseases and disorders” (Board of Regents, The University of Texas System, priority 2017, dated 2023).

Legend:
[1] = target: T1, NMDARs of spinally projecting PVN neurons (Rattus norvegicus, UniProt P35439+Q00959+Q00960); assay: Recordings of spinally projecting PVN neurons in rat brain slices (Ang II); assay type: cell-based
T1 construct: from tissue; host or cells: rat hypothalamic slices containing the PVN (Sprague-Dawley, WKY, SHR) and synaptosomes made from them
Excerpt: Retrograde labeling of spinally projecting PVN neurons: Rats or mice were anesthetized with 2-3% isoflurane, and their spinal cords at the T1-T4 level were exposed through dorsal laminectomy. A fluorescent microsphere suspension (FluoSpheres, 0.04 μm; Molecular Probes, Invitrogen, Eugene, Oreg.) was pressure ejected (Nanoject II Microinjectors, Drummond Scientific Company, Broomall, Pa.) bilaterally into the IML region of the spinal cord in six separate 50-nl injections using a glass micropipette (tip diameter, 20-30 μm). […] The wound was closed with sutures after injection. Animals were returned to their cages for 4-7 days, which was sufficient time to permit the tracer to be retrogradely transported to the PVN. The animals were inspected daily for motor activity, signs of infection, and food and water intake.
Brain slice preparation: Four to seven days after fluorescent tracer injection, the animals were anesthetized with isoflurane and rapidly decapitated. […] Coronal slices (thickness, 300 μm) containing the PVN were cut from the tissue block in the ice-cold aCSF. […] The brain slices were placed in a glass-bottom chamber and continuously perfused with aCSF at 3.0 ml/min at 34° C. maintained by an inline solution heater and temperature controller.
The labeled PVN neurons were briefly identified with the aid of epifluorescence illumination, and whole-cell recordings from labeled PVN neurons were performed under differential interference contrast optics on an upright microscope (BX50 WI; Olympus Optical, Tokyo, Japan). Recordings of postsynaptic currents began 5 min after the whole-cell access was established and the current reached a steady state.
Signals were processed with an […] amplifier (Axon Instruments, Foster City, Calif.). A liquid junction potential of 15 mV (for the potassium gluconate pipette solution) was corrected during off-line analysis.
Postsynaptic NMDAR currents were elicited by puff application of 100 μmol/L NMDA to the recorded neuron using a positive pressure system (4 p.s.i., 50 ms; Toohey Company, Fairfield, N.J.). The tip of the puff pipette was placed 150 μm from the recorded neuron. […] The NMDAR current data presented in the manuscript were the average of 3 consecutive currents elicited by repeated puff NMDA. The neuron was discarded if the current was not stable.
Ang II, losartan, and NMDA were obtained from Sigma (St. Louis, Mo.). The α2δ-1Tat peptide and scrambled control peptide were synthesized by Bio Basic Inc. (Markham, Ontario, Canada) and validated by liquid chromatography and mass spectrometry. […] All drugs were prepared immediately before the experiments and applied to the slice chamber. The brain slices were first pretreated with Ang II, losartan, α2δ-1Tat peptide, or control peptide in the slice incubation chamber before recording. For electrophysiological recording, the treatment agents were immediately removed and the brain slice transferred to a separate recording chamber.

[2] = system: rats treated with the Cacna2d1 vector; assay: Withdrawal thresholds in rats overexpressing Cacna2d1 (lentiviral vector); assay type: in vivo, rat; details: for pain hypersensitivity induced by Cacna2d1 overexpression (tactile and pressure withdrawal thresholds): Cacna2d1 vector rats, AP5, peptide, gabapentin intrathecal, memantine systemic
[3] = target: T2, presynaptic NMDARs of spinal dorsal horn neurons (Rattus norvegicus, UniProt P35439+Q00959+Q00960); assay: Spinal cord slice recordings, morphine-treated rats; assay type: cell-based; details: AP5 50 μM, gabapentin 100 μM
T2 construct: from tissue; host or cells: rat lumbar spinal cord slices (lamina II neurons) and synaptosomes made from them
Description: Spinal cord slice preparation and electrophysiological recordings: The lumbar spinal cord was rapidly removed through laminectomy from the animals anesthetized with isoflurane. […] The spinal cord tissue was then placed in a shallow groove formed in an agar block and glued onto the stage of a vibratome (Leica, Germany).
All signals were recorded using an amplifier (MultiClamp700B; Axon Instruments Inc., Union City, Calif.), filtered at 1-2 kHz, and digitized at 10 kHz.

calpain = assay: MCAO: spectrin BD level (calpain activation) in brain tissues; assay type: in vivo, mouse; details: MCAO WT mice; gabapentin posttreatment; peptide 200 μg/kg i.p. twice
Excerpt: α2δ-1 and α2δ-1-bound NMDARs contribute to MCAO-induced calpain activation in brain tissues: Cerebral ischemia increases calpain activity, and calpain inhibition is neuroprotective against ischemia-induced brain injury. Spectrin is highly sensitive to proteolysis by calpain, and the stable αIIspectrin breakdown product (spectrin BD, 150 kDa) is commonly used as a biochemical assay for calpain activation.

cleaved caspase-3 = assay: MCAO: cleaved caspase-3 protein levels in brain tissues; assay type: in vivo, mouse; details: MCAO mice; cortex, hippocampus, striatum
Excerpt: (C and D) Original gel images (C, two pairs of samples) and quantification (D) of cleaved caspase-3 protein levels in the cerebral cortex, hippocampus, and striatum from MCAO mice treated with α2δ-1Tat peptide or control peptide (n=8 mice per group). Data are shown as means±SEM. *p<0.05 compared with the sham group. #p<0.05 compared with MCAO+vehicle group or control peptide group in the same brain region (repeated measures ANOVA for panel B; paired Student's t-test for panel D).

T1 sequence (Q00959 20-1464 limits assumed, other chains not shown): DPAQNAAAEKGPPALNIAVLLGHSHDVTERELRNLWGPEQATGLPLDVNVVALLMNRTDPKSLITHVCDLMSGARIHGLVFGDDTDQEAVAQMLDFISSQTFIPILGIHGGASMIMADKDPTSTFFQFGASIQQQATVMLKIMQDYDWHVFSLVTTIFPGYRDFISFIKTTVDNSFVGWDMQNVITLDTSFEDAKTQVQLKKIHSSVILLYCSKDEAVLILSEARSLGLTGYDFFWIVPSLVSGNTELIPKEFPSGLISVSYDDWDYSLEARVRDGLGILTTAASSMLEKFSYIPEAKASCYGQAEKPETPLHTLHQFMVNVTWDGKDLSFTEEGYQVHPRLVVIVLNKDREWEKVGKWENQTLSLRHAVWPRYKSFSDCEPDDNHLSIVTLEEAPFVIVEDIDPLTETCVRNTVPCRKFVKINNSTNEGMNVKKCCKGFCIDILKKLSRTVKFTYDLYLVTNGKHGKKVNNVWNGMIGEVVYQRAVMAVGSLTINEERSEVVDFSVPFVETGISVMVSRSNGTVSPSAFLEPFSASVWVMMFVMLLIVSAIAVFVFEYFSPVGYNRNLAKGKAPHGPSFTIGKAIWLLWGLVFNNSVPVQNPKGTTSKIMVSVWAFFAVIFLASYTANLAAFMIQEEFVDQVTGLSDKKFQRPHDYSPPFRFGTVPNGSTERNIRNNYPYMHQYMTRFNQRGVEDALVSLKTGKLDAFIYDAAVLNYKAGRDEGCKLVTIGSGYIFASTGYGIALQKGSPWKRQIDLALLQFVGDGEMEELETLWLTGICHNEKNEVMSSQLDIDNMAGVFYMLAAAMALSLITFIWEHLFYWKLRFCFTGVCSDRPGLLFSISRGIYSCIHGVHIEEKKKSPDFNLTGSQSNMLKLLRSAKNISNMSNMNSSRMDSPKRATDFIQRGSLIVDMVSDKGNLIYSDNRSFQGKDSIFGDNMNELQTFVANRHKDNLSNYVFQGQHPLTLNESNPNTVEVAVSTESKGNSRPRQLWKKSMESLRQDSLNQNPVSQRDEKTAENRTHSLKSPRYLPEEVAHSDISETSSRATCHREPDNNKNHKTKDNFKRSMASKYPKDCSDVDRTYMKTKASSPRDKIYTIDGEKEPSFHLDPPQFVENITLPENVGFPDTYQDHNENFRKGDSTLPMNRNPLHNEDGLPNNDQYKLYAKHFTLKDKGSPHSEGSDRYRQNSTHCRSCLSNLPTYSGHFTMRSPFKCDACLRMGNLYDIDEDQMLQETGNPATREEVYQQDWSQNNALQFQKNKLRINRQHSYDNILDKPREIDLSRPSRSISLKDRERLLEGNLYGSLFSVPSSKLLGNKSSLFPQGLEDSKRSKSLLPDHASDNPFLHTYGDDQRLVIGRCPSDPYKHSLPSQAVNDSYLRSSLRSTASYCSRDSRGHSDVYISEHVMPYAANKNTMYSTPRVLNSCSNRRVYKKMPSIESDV
T1 sequence (Q00960 27-1482, other chains not shown): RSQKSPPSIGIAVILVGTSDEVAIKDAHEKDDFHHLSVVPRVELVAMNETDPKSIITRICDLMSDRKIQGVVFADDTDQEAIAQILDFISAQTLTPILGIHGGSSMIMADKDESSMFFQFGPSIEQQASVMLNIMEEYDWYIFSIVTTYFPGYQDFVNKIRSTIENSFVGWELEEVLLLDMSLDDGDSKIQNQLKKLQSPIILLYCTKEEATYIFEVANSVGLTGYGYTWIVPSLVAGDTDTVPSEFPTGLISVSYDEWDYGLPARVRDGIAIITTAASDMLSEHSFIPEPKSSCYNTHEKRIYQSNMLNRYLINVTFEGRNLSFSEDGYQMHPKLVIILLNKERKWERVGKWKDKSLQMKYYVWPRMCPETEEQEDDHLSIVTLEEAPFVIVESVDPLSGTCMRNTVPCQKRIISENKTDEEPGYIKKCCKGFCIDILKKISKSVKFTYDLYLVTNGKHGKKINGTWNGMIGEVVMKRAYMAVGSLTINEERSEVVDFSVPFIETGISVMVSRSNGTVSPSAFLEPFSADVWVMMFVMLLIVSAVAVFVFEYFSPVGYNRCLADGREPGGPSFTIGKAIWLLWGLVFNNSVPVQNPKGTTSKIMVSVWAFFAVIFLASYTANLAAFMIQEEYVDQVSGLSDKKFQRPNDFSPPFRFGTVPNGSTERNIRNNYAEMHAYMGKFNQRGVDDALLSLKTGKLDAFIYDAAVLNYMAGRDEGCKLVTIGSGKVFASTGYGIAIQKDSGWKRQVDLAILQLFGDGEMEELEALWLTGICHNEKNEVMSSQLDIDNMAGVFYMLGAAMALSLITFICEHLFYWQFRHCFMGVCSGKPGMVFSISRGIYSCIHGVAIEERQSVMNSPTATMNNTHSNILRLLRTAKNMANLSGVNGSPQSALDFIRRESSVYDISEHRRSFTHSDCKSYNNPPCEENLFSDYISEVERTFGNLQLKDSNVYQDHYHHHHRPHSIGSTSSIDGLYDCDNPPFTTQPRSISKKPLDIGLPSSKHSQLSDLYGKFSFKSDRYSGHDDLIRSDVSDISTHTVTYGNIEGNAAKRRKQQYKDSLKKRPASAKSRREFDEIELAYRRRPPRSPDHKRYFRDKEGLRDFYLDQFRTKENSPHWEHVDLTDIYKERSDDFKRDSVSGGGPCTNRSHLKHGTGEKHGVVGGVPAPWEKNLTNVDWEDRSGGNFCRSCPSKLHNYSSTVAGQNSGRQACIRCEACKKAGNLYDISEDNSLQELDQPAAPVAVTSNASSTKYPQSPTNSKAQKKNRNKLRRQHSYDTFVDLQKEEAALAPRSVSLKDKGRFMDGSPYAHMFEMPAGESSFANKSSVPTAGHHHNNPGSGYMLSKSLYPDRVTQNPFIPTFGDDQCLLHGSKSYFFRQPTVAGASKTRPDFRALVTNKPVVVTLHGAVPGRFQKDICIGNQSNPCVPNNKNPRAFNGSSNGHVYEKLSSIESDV

Compound	amplitude of puff NMDA currents of labeled PVN neurons ([1]; Ang II 2 μmol/L for 30-60 min)	baseline frequency of mEPSCs of labeled PVN neurons ([1]; Ang II 2 μmol/L for 30-60 min)	pain hypersensitivity induced by Cacna2d1 overexpression (tactile and pressure withdrawal thresholds) [2]	pain hypersensitivity induced by Cacna2d1 overexpression (tactile and pressure withdrawal thresholds) ([2]; listed as a2d-1Tat peptide)	withdrawal thresholds in rats treated with the control vector ([2]; control vector rats, intrathecal injection)	frequency of mEPSCs in dorsal horn neurons ([3]; peptide 1 μM for 60 min)	amplitude of monosynaptic evoked EPSCs ([3]; peptides 1 μM for 60 min)	effect of Ang II on mEPSC frequency in pretreated slices ([1]; losartan 2 μmol/L, pregabalin 20 μmol/L, peptides 1 μmol/L)	effect of Ang II on puff NMDA currents in pretreated slices ([1]; losartan 2 μmol/L, pregabalin 20 μmol/L, peptides 1 μmol/L, 30 min)	spectrin BD level in cortex, hippocampus and striatum (calpain)	MCAO-induced apoptotic signaling (cleaved caspase-3) (cleaved caspase-3)
Ang II: angiotensin II, obtained from Sigma (DRVYIHPF; Angiotensin-2; UniProt P01019 25-32, looked up)	markedly increased	significantly increased									
YGRKKRRQRRRVSGLNPSLWSIFGLQFILLWLVSGSRHYLW (a2d1 peptide) [α2δ-1Tat peptide, 30-amino-acid peptide mimicking the C-terminal domain of α2δ-1 fused to the cell-penetrating peptide Tat]			attenuates	similarly reversed	had no effect	significantly reduced	normalized	failed to increase	had no effect	significantly reduced	suppresses
NCC1(CC(=O)O)CCCCC1 [gabapentin]										significantly reduced	suppresses
